In US20230085307A1, “PYRIDAZINONE COMPOUND AND HERBICIDE” (NISSAN CHEMICAL CORPORATION, priority 2019, published 2023):

Tests used:
rice flat sedge = experiment: Test Example 3: herbicidal effect by foliage application, Wagner pot (Table 18, symbol E); assay type: in vivo, rice flat sedge (Cyperus iria); details: 320 g/ha
How it was run: (§1)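 Plants were sown in alluvial soil held under 0.1–0.5 cm standing water and grown 14 days in a greenhouse at 25–30 °C. An emulsifiable formulation, water-diluted to the set dose, was then sprayed onto the foliage, and effects were scored three weeks later using previously defined criteria.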

wild oat [1] = experiment: Test Example 5: herbicidal effect by foliage application, plastic box (Table 20, symbol I); assay type: in vivo, wild oat (Avena fatua); details: foliage application, 320 g/ha, three weeks after application
How it was run: (§2)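 Post-emergence foliar test in sterilized diluvial soil. Compound applied as water-diluted emulsion at a predetermined rate to 14-day-old plants; evaluation at three weeks.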

barnyard grass [2] = experiment: Test Example 5: herbicidal effect by foliage application, plastic box (Table 20, symbol H); assay type: in vivo, barnyard grass (Echinochloa crus-galli); details: foliage application, 320 g/ha, three weeks after application
How it was run: as §2

redroot pigweed [3] = experiment: Test Example 5: herbicidal effect by foliage application, plastic box (Table 20, symbol N); assay type: in vivo, redroot pigweed (Amaranthus retroflexus); details: foliage application, 320 g/ha, three weeks after application
How it was run: as §2

late watergrass = experiment: Test Example 1: herbicidal activity, application before weed generation under submerged conditions (Table 16, symbol A); assay type: in vivo, late watergrass (Echinochloa oryzicola); details: 320 g/ha applied herbicide
How it was run: (§3)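 Alluvial soil was flooded to 4 cm depth, weed seeds were sown mixed and 2.5-leaf rice seedlings were transplanted. On sowing day, the compound's emulsion, diluted in water to a set dose, was applied to the water surface. Plants grew at 25–30 °C and were scored 0–5 after three weeks.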

windgrass [4] = experiment: Test Example 5: herbicidal effect by foliage application, plastic box (Table 20, symbol L); assay type: in vivo, windgrass (Apera spica-venti); details: foliage application, 320 g/ha, three weeks after application
How it was run: as §2

barnyard grass [5] = experiment: Test Example 3: herbicidal effect by foliage application, Wagner pot (Table 18, symbol H); assay type: in vivo, barnyard grass (Echinochloa crus-galli); details: 320 g/ha
How it was run: as §1

Italian ryegrass [6] = experiment: Test Example 4: herbicidal effect by soil treatment (Table 19, symbol K); assay type: in vivo, Italian ryegrass (Lolium multiflorum); details: amount of applied herbicide 320 g/ha
How it was run: (§4)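 Emulsion of test compound, water-diluted to predetermined amount, sprayed on soil after sowing (seed depth ~1.5 cm, sterilized diluvial soil). Greenhouse, 25–30° C. Effect graded at three weeks post-spray.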

chickweed [7] = experiment: Test Example 5: herbicidal effect by foliage application, plastic box (Table 20, symbol P); assay type: in vivo, common chickweed (Stellaria media); details: foliage application, 320 g/ha, three weeks after application
How it was run: as §2

green foxtail [8] = experiment: Test Example 4: herbicidal effect by soil treatment (Table 19, symbol G); assay type: in vivo, green foxtail (Setaria viridis); details: amount of applied herbicide 320 g/ha
How it was run: as §4

lambsquarters [9] = experiment: Test Example 4: herbicidal effect by soil treatment (Table 19, symbol O); assay type: in vivo, lambsquarters (Chenopodium album); details: amount of applied herbicide 320 g/ha
How it was run: as §4

oval-leafed pondweed = experiment: Test Example 1: herbicidal activity, application before weed generation under submerged conditions (Table 16, symbol C); assay type: in vivo, oval-leafed pondweed (Monochoria vaginalis); details: 320 g/ha applied herbicide
How it was run: as §3

velvetleaf [10] = experiment: Test Example 5: herbicidal effect by foliage application, plastic box (Table 20, symbol M); assay type: in vivo, velvetleaf (Abutilon theophrasti); details: foliage application, 320 g/ha, three weeks after application
How it was run: as §2

velvetleaf [11] = experiment: Test Example 4: herbicidal effect by soil treatment (Table 19, symbol M); assay type: in vivo, velvetleaf (Abutilon theophrasti); details: amount of applied herbicide 320 g/ha
How it was run: as §4

blackgrass [12] = experiment: Test Example 4: herbicidal effect by soil treatment (Table 19, symbol J); assay type: in vivo, blackgrass (Alopecurus myosuroides); details: amount of applied herbicide 320 g/ha
How it was run: as §4

windgrass [13] = experiment: Test Example 4: herbicidal effect by soil treatment (Table 19, symbol L); assay type: in vivo, windgrass (Apera spica-venti); details: amount of applied herbicide 320 g/ha
How it was run: as §4

lambsquarters [14] = experiment: Test Example 5: herbicidal effect by foliage application, plastic box (Table 20, symbol O); assay type: in vivo, lambsquarters (Chenopodium album); details: foliage application, 320 g/ha, three weeks after application
How it was run: as §2

redroot pigweed [15] = experiment: Test Example 4: herbicidal effect by soil treatment (Table 19, symbol N); assay type: in vivo, redroot pigweed (Amaranthus retroflexus); details: amount of applied herbicide 320 g/ha
How it was run: as §4

barnyard grass [16] = experiment: Test Example 4: herbicidal effect by soil treatment (Table 19, symbol H); assay type: in vivo, barnyard grass (Echinochloa crus-galli); details: amount of applied herbicide 320 g/ha
How it was run: as §4

wild oat [17] = experiment: Test Example 4: herbicidal effect by soil treatment (Table 19, symbol I); assay type: in vivo, wild oat (Avena fatua); details: amount of applied herbicide 320 g/ha
How it was run: as §4

Japanese bulrush = experiment: Test Example 1: herbicidal activity, application before weed generation under submerged conditions (Table 16, symbol B); assay type: in vivo, Japanese bulrush (Schoenoplectus juncoides); details: 320 g/ha applied herbicide
How it was run: as §3

blackgrass [18] = experiment: Test Example 5: herbicidal effect by foliage application, plastic box (Table 20, symbol J); assay type: in vivo, blackgrass (Alopecurus myosuroides); details: foliage application, 320 g/ha, three weeks after application
How it was run: as §2

persian speedwell [19] = experiment: Test Example 4: herbicidal effect by soil treatment (Table 19, symbol R); assay type: in vivo, Persian speedwell (Veronica persica); details: amount of applied herbicide 320 g/ha
How it was run: as §4

green foxtail [20] = experiment: Test Example 5: herbicidal effect by foliage application, plastic box (Table 20, symbol G); assay type: in vivo, green foxtail (Setaria viridis); details: foliage application, 320 g/ha, three weeks after application
How it was run: as §2

Italian ryegrass [21] = experiment: Test Example 5: herbicidal effect by foliage application, plastic box (Table 20, symbol K); assay type: in vivo, Italian ryegrass (Lolium multiflorum); details: foliage application, 320 g/ha, three weeks after application
How it was run: as §2

chickweed [22] = experiment: Test Example 4: herbicidal effect by soil treatment (Table 19, symbol P); assay type: in vivo, common chickweed (Stellaria media); details: amount of applied herbicide 320 g/ha
How it was run: as §4

southern crabgrass [23] = experiment: Test Example 4: herbicidal effect by soil treatment (Table 19, symbol F); assay type: in vivo, southern crabgrass (Digitaria ciliaris); details: amount of applied herbicide 320 g/ha
How it was run: as §4

Chinese sprangletop = experiment: Test Example 3: herbicidal effect by foliage application, Wagner pot (Table 18, symbol D); assay type: in vivo, chinese sprangletop (Leptochloa chinensis); details: 320 g/ha
How it was run: as §1

false cleavers [24] = experiment: Test Example 4: herbicidal effect by soil treatment (Table 19, symbol Q); assay type: in vivo, false cleavers (Galium spurium); details: amount of applied herbicide 320 g/ha
How it was run: as §4

persian speedwell [25] = experiment: Test Example 5: herbicidal effect by foliage application, plastic box (Table 20, symbol R); assay type: in vivo, Persian speedwell (Veronica persica); details: foliage application, 320 g/ha, three weeks after application
How it was run: as §2

false cleavers [26] = experiment: Test Example 5: herbicidal effect by foliage application, plastic box (Table 20, symbol Q); assay type: in vivo, false cleavers (Galium spurium); details: foliage application, 320 g/ha, three weeks after application
How it was run: as §2

southern crabgrass [27] = experiment: Test Example 5: herbicidal effect by foliage application, plastic box (Table 20, symbol F); assay type: in vivo, southern crabgrass (Digitaria ciliaris); details: foliage application, 320 g/ha, three weeks after application
How it was run: as §2

Row | SMILES | herbicidal effect on E (rice flat sedge), rating 0-5 (rice flat sedge) | herbicidal effect grade, I: wild oat (wild oat [1]) | herbicidal effect grade, H: barnyard grass (barnyard grass [2]) | herbicidal effect grade, N: redroot pigweed (redroot pigweed [3]) | Herbicidal effect on A: late watergrass (grade 0-5) (late watergrass) | herbicidal effect grade, L: windgrass (windgrass [4]) | herbicidal effect on H (barnyard grass), rating 0-5 (barnyard grass [5]) | herbicidal effect rating, K: Italian ryegrass (Italian ryegrass [6]) | herbicidal effect grade, P: chickweed (chickweed [7]) | herbicidal effect rating, G: green foxtail (green foxtail [8]) | herbicidal effect rating, O: lambsquarters (lambsquarters [9]) | Herbicidal effect on C: oval-leafed pondweed (grade 0-5) (oval-leafed pondweed) | herbicidal effect grade, M: velvetleaf (velvetleaf [10]) | herbicidal effect rating, M: velvetleaf (velvetleaf [11]) | herbicidal effect rating, J: blackgrass (blackgrass [12]) | herbicidal effect rating, L: windgrass (windgrass [13]) | herbicidal effect grade, O: lambsquarters (lambsquarters [14]) | herbicidal effect rating, N: redroot pigweed (redroot pigweed [15]) | herbicidal effect rating, H: barnyard grass (barnyard grass [16]) | herbicidal effect rating, I: wild oat (wild oat [17]) | further results
1 | CCCCCCOc1ccc(-c2sc3ccccc3c2-c2c(O)c(C)nn(C)c2=O)cc1 [1-028] | 4 (Herbicidal rate of 70% or more and less than 90%) | 3 (Herbicidal rate of 40% or more and less than 70%) | 0 (Herbicidal rate of 5% or less (almost no effect)) | 5 (Herbicidal rate of 90% or more (almost completely withered)) | 1 (Herbicidal rate of 5% or more and less than 20%) | 3 (Herbicidal rate of 40% or more and less than 70%) | 3 (Herbicidal rate of 40% or more and less than 70%) | 0 (Herbicidal rate of 5% or less (almost no effect)) | 5 (Herbicidal rate of 90% or more (almost completely withered)) | 0 (Herbicidal rate of 5% or less (almost no effect)) | 0 (Herbicidal rate of 5% or less (almost no effect)) | 0 (Herbicidal rate of 5% or less (almost no effect)) | 3 (Herbicidal rate of 40% or more and less than 70%) | 0 (Herbicidal rate of 5% or less (almost no effect)) | 0 (Herbicidal rate of 5% or less (almost no effect)) | 0 (Herbicidal rate of 5% or less (almost no effect)) | 3 (Herbicidal rate of 40% or more and less than 70%) | 2 (Herbicidal rate of 20% or more and less than 40%) | 0 (Herbicidal rate of 5% or less (almost no effect)) | 0 (Herbicidal rate of 5% or less (almost no effect)) | Herbicidal effect on B: Japanese bulrush (grade 0-5) (Japanese bulrush): 2 (Herbicidal rate of 20% or more and less than 40%); herbicidal effect grade, J: blackgrass (blackgrass [18]): 0 (Herbicidal rate of 5% or less (almost no effect)); herbicidal effect rating, R: persian speedwell (persian speedwell [19]): 0 (Herbicidal rate of 5% or less (almost no effect)); herbicidal effect grade, G: green foxtail (green foxtail [20]): 4 (Herbicidal rate of 70% or more and less than 90%); herbicidal effect grade, K: Italian ryegrass (Italian ryegrass [21]): 2 (Herbicidal rate of 20% or more and less than 40%); herbicidal effect rating, P: chickweed (chickweed [22]): 0 (Herbicidal rate of 5% or less (almost no effect)); herbicidal effect rating, F: southern crabgrass (southern crabgrass [23]): 0 (Herbicidal rate of 5% or less (almost no effect)); herbicidal effect on D (Chinese sprangletop), rating 0-5 (Chinese sprangletop): 0 (Herbicidal rate of 5% or less (almost no effect)); herbicidal effect rating, Q: false cleavers (false cleavers [24]): 0 (Herbicidal rate of 5% or less (almost no effect)); herbicidal effect grade, R: persian speedwell (persian speedwell [25]): 3 (Herbicidal rate of 40% or more and less than 70%); herbicidal effect grade, Q: false cleavers (false cleavers [26]): 4 (Herbicidal rate of 70% or more and less than 90%); herbicidal effect grade, F: southern crabgrass (southern crabgrass [27]): 0 (Herbicidal rate of 5% or less (almost no effect))
2 | CCCC(=O)Oc1c(C)nn(C)c(=O)c1-c1c(-c2ccc(N(C)C)cc2)sc2ccccc12 [1-040] | 5 (Herbicidal rate of 90% or more (almost completely withered)) | 0 (Herbicidal rate of 5% or less (almost no effect)) | 3 (Herbicidal rate of 40% or more and less than 70%) | 5 (Herbicidal rate of 90% or more (almost completely withered)) | 3 (Herbicidal rate of 40% or more and less than 70%) | 0 (Herbicidal rate of 5% or less (almost no effect)) | 4 (Herbicidal rate of 70% or more and less than 90%) | 3 (Herbicidal rate of 40% or more and less than 70%) | 5 (Herbicidal rate of 90% or more (almost completely withered)) | 0 (Herbicidal rate of 5% or less (almost no effect)) | 0 (Herbicidal rate of 5% or less (almost no effect)) | 1 (Herbicidal rate of 5% or more and less than 20%) | 5 (Herbicidal rate of 90% or more (almost completely withered)) | 0 (Herbicidal rate of 5% or less (almost no effect)) | 0 (Herbicidal rate of 5% or less (almost no effect)) | 0 (Herbicidal rate of 5% or less (almost no effect)) | 4 (Herbicidal rate of 70% or more and less than 90%) | 0 (Herbicidal rate of 5% or less (almost no effect)) | 0 (Herbicidal rate of 5% or less (almost no effect)) | 0 (Herbicidal rate of 5% or less (almost no effect)) | Herbicidal effect on B: Japanese bulrush (grade 0-5) (Japanese bulrush): 3 (Herbicidal rate of 40% or more and less than 70%); herbicidal effect grade, J: blackgrass (blackgrass [18]): 0 (Herbicidal rate of 5% or less (almost no effect)); herbicidal effect rating, R: persian speedwell (persian speedwell [19]): 0 (Herbicidal rate of 5% or less (almost no effect)); herbicidal effect grade, G: green foxtail (green foxtail [20]): 5 (Herbicidal rate of 90% or more (almost completely withered)); herbicidal effect grade, K: Italian ryegrass (Italian ryegrass [21]): 4 (Herbicidal rate of 70% or more and less than 90%); herbicidal effect rating, P: chickweed (chickweed [22]): 0 (Herbicidal rate of 5% or less (almost no effect)); herbicidal effect rating, F: southern crabgrass (southern crabgrass [23]): 0 (Herbicidal rate of 5% or less (almost no effect)); herbicidal effect on D (Chinese sprangletop), rating 0-5 (Chinese sprangletop): 3 (Herbicidal rate of 40% or more and less than 70%); herbicidal effect rating, Q: false cleavers (false cleavers [24]): 0 (Herbicidal rate of 5% or less (almost no effect)); herbicidal effect grade, R: persian speedwell (persian speedwell [25]): 5 (Herbicidal rate of 90% or more (almost completely withered)); herbicidal effect grade, Q: false cleavers (false cleavers [26]): 3 (Herbicidal rate of 40% or more and less than 70%); herbicidal effect grade, F: southern crabgrass (southern crabgrass [27]): 4 (Herbicidal rate of 70% or more and less than 90%)
